# Assay results from the NIST ThermoML archive (doi:10.1021/acs.jced.8b01256).
# Numbers after ± are expanded uncertainties.
# Experiments:
# [1] = Molar enthalpy of transition or fusion; conditions: Crystal; DSC
# [2] = Crystal; DSC
smiles,measurement,setting,value
Cc1[nH]nc2cc([N+](=O)[O-])ccc12 [3-methyl-6-nitroindazole],Molar enthalpy of transition or fusion,[1],2.55 ± 0.0908 kcal/mol
same,Triple point temperature,[2],460.15 ± 1 K
